{
  "source": "patent US20220409643A1",
  "about": "“ROR Gamma T Inhibitors and Topical Uses Thereof” (Dermira, inc., priority 2019, published 2022)",
  "data": [
    {"test_system": "IL17A", "experiment": "skin Resident Immune Cell Assay (sRICA), Th17 model, IL17A protein in media", "type": "cell-based", "details": "100 uM solution in 1% DMSO/OD applied topically to human skin; media collected 24 hours after Th17 activation", "protocol": "(§1) A skin Resident Immune Cell Assay (sRICA) was used to test compounds for reduction of IL-17A protein upregulation in the Th17 sRICA model. In this model, human surgical skin waste was cultured in a transwell system, with the dermis in contact with cell culture media and the stratum corneum exposed to air. To perform the assay, each human skin sample was defatted and dermatomed to 750μm. Next, 8 mm punch biopsies were obtained and placed in a membrane transwell. The transwells were inserted into culture wells with complete media, and a cocktail of cytokines and antibodies were added to promote skin resident immune cell polarization.\n(§2) RORγt inhibitors were prepared as a 100 uM solution in 1% DMSO/OD. […] of the prepared topical solution was applied to sRICA wells prepared for topical drug evaluation. Drugs were allowed to penetrate the skin overnight, for up to 24 hours prior to Th17 activation. Media was collected 24 hours after Th17 activation for IL17A protein assessment. IL17A protein was evaluated using the Quanterix IL17A detection kit on the SiMoA platform (via CRO Translational Biosciences). There was significant upregulation of IL17A with Th17 activation. Each study was normalized to the % max of IL17A production (i.e. the average IL17A concentration of Th17 activated skin alone) was set to 100%, all other values (untreated no activation and treated samples) were obtained as a percentage of this. […]", "units": {"inhibition at 100 µM": "%"}, "values": [
      {"compound": "COc1ccc2c(c1)CCN(C(=O)Cc1cc(O)no1)[C@H]2C(=O)Nc1cc(F)c(C(C)(C)COCC2CC2)c(F)c1", "note": "[(1R)-N-(4-(1-(cyclopropyl-methoxy)-2-methylpropan-2-yl)-3,5-difluorophenyl)-2-((3-hydroxy-1,2-oxazol-5-yl)acetyl)-6-methoxy-1,2,3,4-tetrahydro-isoquinoline-1-carboxamide]", "inhibition at 100 µM": 61.7},
      {"compound": "CCOCC(C)(C)c1c(F)cc(NC(=O)[C@H]2c3ccc(OC)cc3CCN2C(=O)Cc2cc(O)no2)cc1F", "note": "[(1R)-N-(4-(1-ethoxy-2-methylpropan-2-yl)-3,5-difluorophenyl)-2-((3-hydroxy-1,2-oxazol-5-yl)acetyl)-6-methoxy-1,2,3,4-tetrahydro-isoquinoline-1-carboxamide]", "inhibition at 100 µM": 54.9},
      {"compound": "CCOCC(C)(C)c1c(F)cc(NC(=O)[C@H]2c3ccc(OC)cc3CCN2C(=O)c2cc(O)no2)cc1F", "note": "[(1R)-N-(4-(1-ethoxy-2-methylpropan-2-yl)-3,5-difluorophenyl)-2-((3-hydroxy-1,2-oxazol-5-yl)carbonyl)-6-methoxy-1,2,3,4-tetrahydro-isoquinoline-1-carboxamide]", "inhibition at 100 µM": 56.1},
      {"compound": "COc1ccc2c(c1)CCN(C(=O)Cc1cc(O)no1)[C@H]2C(=O)Nc1cc(F)c(C(C)(C)C)c(F)c1", "note": "[(1R)-N-(4-tert-butyl-3,5-difluorophenyl)-2-((3-hydroxy-1,2-oxazol-5-yl)acetyl)-6-methoxy-1,2,3,4-tetrahydroisoquinoline-1-carboxamide]", "inhibition at 100 µM": -10.9},
      {"compound": "COc1ccc2c(c1)CCN(C(=O)Cc1cc(O)no1)[C@H]2C(=O)Nc1ccc(C(C)(C)C)c(F)c1", "note": "[(1R)-N-(4-tert-butyl-3-fluorophenyl)-2-((3-hydroxy-1,2-oxazol-5-yl)acetyl)-6-methoxy-1,2,3,4-tetrahydroisoquinoline-1-carboxamide]", "inhibition at 100 µM": 23.6},
      {"compound": "COCc1ccc2c(c1)CCN(C(=O)Cc1cc(O)no1)[C@H]2C(=O)Nc1ccc(C(C)(C)C)c(F)c1", "note": "[(1R)-N-(4-tert-butyl-3-fluorophenyl)-2-((3-hydroxy-1,2-oxazol-5-yl)acetyl)-6-methoxymethyl-1,2,3,4-tetrahydroisoquinoline-1-carboxamide]", "inhibition at 100 µM": 60.8},
      {"compound": "COCc1ccc2c(c1)CCN(C(=O)Cc1cc(O)no1)[C@H]2C(=O)Nc1cc(F)c2c(c1)CCC2(C)C", "note": "[(1R)-N-(7-fluoro-1,1-dimethyl-2,3-dihydro-1H-inden-5-yl)-2-((3-hydroxy-1,2-oxazol-5-yl)acetyl)-6-(methoxymethyl)-1,2,3,4-tetrahydroisoquinoline-1-carboxamide]", "inhibition at 100 µM": 50.5},
      {"compound": "COc1ccc2c(c1)CCN(C(=O)Cc1cc(O)no1)[C@H]2C(=O)Nc1cc(F)c2c(c1)CCC2(C)C", "note": "[(1R)-N-(7-fluoro-1,1-dimethyl-2,3-dihydro-1H-inden-5-yl)-2-((3-hydroxy-1,2-oxazol-5-yl)acetyl)-6-methoxy-1,2,3,4-tetrahydroisoquinoline-1-carboxamide]", "inhibition at 100 µM": 33.9},
      {"compound": "COCc1ccc2c(c1)CCN(C(=O)c1cc(O)no1)[C@H]2C(=O)Nc1cc(F)c2c(c1)CCC2(C)C", "note": "[(1R)-N-(7-fluoro-1,1-dimethyl-2,3-dihydro-1H-inden-5-yl)-2-((3-hydroxy-1,2-oxazol-5-yl)carbonyl)-6-(methoxymethyl)-1,2,3,4-tetrahydroisoquinoline-1-carboxamide]", "inhibition at 100 µM": 59.1},
      {"compound": "COCc1ccc([C@@H](NC(=O)Cc2cc(O)no2)C(=O)Nc2cc(F)c(C(C)(C)C)c(F)c2)cc1", "note": "[(2R)-N-(4-tert-butyl-3,5-difluorophenyl)-2-(((3-hydroxy-1,2-oxazol-5-yl)acetyl)amino)-2-(4-(methoxymethyl)phenyl)acetamide]", "inhibition at 100 µM": 26.3},
      {"compound": "COCc1ccc([C@@H](NC(=O)Cc2nnc(C)o2)C(=O)Nc2ccc(C(C)(C)C)c(F)c2)cc1", "note": "[(2R)-N-(4-tert-butyl-3-fluorophenyl)-2-(4-(methoxymethyl)phenyl)-2-(((5-methyl-1,3,4-oxadiazol-2-yl)acetyl)amino)acetamide]", "inhibition at 100 µM": 62},
      {"compound": "COCc1ccc([C@@H](NC(=O)Cc2cc(O)no2)C(=O)Nc2ccc(C(C)(C)C)c(F)c2)cc1", "note": "[(2R)-N-(4-tert-butyl-3-fluorophenyl)-2-(((3-hydroxy-1,2-oxazol-5-yl)acetyl)amino)-2-(4-(methoxymethyl)phenyl)acetamide]", "inhibition at 100 µM": 68.1},
      {"compound": "CC(C)n1c(=O)n(CC2CC2)c(=O)c2cc(NC(=O)N3CCC[C@@H](NC(=O)c4ccccc4)C3)ccc21", "note": "[(3R)-3-(benzoylamino)-N-(3-(cyclopropylmethyl)-1-isopropyl-2,4-dioxo-1,2,3,4-tetrahydroquinazolin-6-yl)piperidine-1-carboxamide]", "inhibition at 100 µM": 53.2},
      {"compound": "CC(C)n1c(=O)n(CC2CC(F)(F)C2)c(=O)c2cc(NC(=O)N3CCC[C@@H](N4Cc5ccccc5C4=O)C3)c(F)cc21", "note": "[(3R)-N-(3-((3,3-difluorocyclobutyl)-methyl)-7-fluoro-1-isopropyl-2,4-dioxo-1,2,3,4-tetrahydro-quinazolin-6-yl)-3-(1-oxo-1,3-dihydro-2H-isoindol-2-yl)-piperidine-1-carboxamide]", "inhibition at 100 µM": 73.1},
      {"compound": "CC(C)n1c(=O)n(CC2CC2)c(=O)c2cc(NC(=O)N3CCC[C@@H](NC(=O)c4cc(F)ccc4F)C3)c(F)cc21", "note": "[(3R)-N-(3-(cyclopropylmethyl)-7-fluoro-1-isopropyl-2,4-dioxo-1,2,3,4-tetrahydroquinazolin-6-yl)-3-((2,5-difluorobenzoyl)amino)-piperidine-1-carboxamide]", "inhibition at 100 µM": 44.2}
    ]},
    {"test_system": "IL17A", "experiment": "skin Resident Immune Cell Assay (sRICA), Th17 model, IL17A protein in media", "type": "cell-based", "details": "Homo sapiens, 24 h, 100 uM solution in 1% DMSO/OD applied topically to human skin; media collected 24 hours after Th17 activation", "protocol": "as §1, §2", "units": {"inhibition at 100 µM": "%"}, "values": [
      {"compound": "COCc1ccc([C@@H](NC(=O)Cn2ccc(=O)[nH]c2=O)C(=O)Nc2ccc([Si](C)(C)C)c(F)c2)cc1", "note": "[(2R)-2-(((2,4-dioxo-3,4-dihydropyrimidin-1(2H)-yl)acetyl)amino)-N-(3-fluoro-4-(trimethylsilyl)phenyl)-2-(4-(methoxymethyl)phenyl)acetamide]", "inhibition at 100 µM": 68.6},
      {"compound": "COCc1ccc([C@@H](NC(=O)CN2C(=O)CNC2=O)C(=O)Nc2ccc([Si](C)(C)C)c(F)c2)cc1", "note": "[(2R)-2-(((2,5-dioxoimidazolidin-1-yl)acetyl)amino)-N-(3-fluoro-4-(trimethylsilyl)phenyl)-2-(4-(methoxymethyl)phenyl)acetamide]", "inhibition at 100 µM": 36.3},
      {"compound": "COCc1ccc([C@@H](NC(=O)Cc2nnc(C)o2)C(=O)Nc2cc(F)c([Si](C)(C)C)cc2F)cc1", "note": "[(2R)-N-(2,5-difluoro-4-(trimethylsilyl)phenyl)-2-(4-(methoxymethyl)phenyl)-2-(((5-methyl-1,3,4-oxadiazol-2-yl)acetyl)amino)acetamide]", "inhibition at 100 µM": 75.7},
      {"compound": "COCc1ccc([C@@H](NC(=O)Cn2nc(C)ccc2=O)C(=O)Nc2cc(F)c([Si](C)(C)C)c(F)c2)cc1", "note": "[(2R)-N-(3,5-difluoro-4-(trimethylsilyl)phenyl)-2-(4-(methoxymethyl)phenyl)-2-(((3-methyl-6-oxopyridazin-1(6H)-yl)acetyl)amino)acetamide]", "inhibition at 100 µM": 38.7},
      {"compound": "COCc1ccc([C@@H](NC(=O)Cc2nnc(C)o2)C(=O)Nc2cc(F)c([Si](C)(C)C)c(F)c2)cc1", "note": "[(2R)-N-(3,5-difluoro-4-(trimethylsilyl)phenyl)-2-(4-(methoxymethyl)phenyl)-2-(((5-methyl-1,3,4-oxadiazol-2-yl)acetyl)amino)acetamide]", "inhibition at 100 µM": 60.8},
      {"compound": "COCc1ccc([C@@H](NC(=O)Cn2cnccc2=O)C(=O)Nc2cc(F)c([Si](C)(C)C)c(F)c2)cc1", "note": "[(2R)-N-(3,5-difluoro-4-(trimethylsilyl)phenyl)-2-(4-(methoxymethyl)phenyl)-2-(((6-oxopyrimidin-1(6H)-yl)acetyl)amino)acetamide]", "inhibition at 100 µM": 80},
      {"compound": "COCc1ccc([C@@H](NC(=O)Cc2cc(O)no2)C(=O)Nc2cc(F)c([Si](C)(C)C)c(F)c2)cc1", "note": "[(2R)-N-(3,5-difluoro-4-(trimethylsilyl)phenyl)-2-(((3-hydroxy-1,2-oxazol-5-yl)acetyl)amino)-2-(4-(methoxymethyl)phenyl)acetamide]", "inhibition at 100 µM": 53.9},
      {"compound": "COCc1ccc([C@@H](NC(=O)Cc2nnc(C)o2)C(=O)Nc2ccc([Si](C)(C)C)c(F)c2)cc1", "note": "[(2R)-N-(3-fluoro-4-(trimethylsilyl)phenyl)-2-(4-(methoxymethyl)phenyl)-2-(((5-methyl-1,3,4-oxadiazol-2-yl)acetyl)amino)acetamide]", "inhibition at 100 µM": 35.5},
      {"compound": "COCc1ccc([C@@H](NC(=O)CS(C)(=O)=O)C(=O)Nc2ccc([Si](C)(C)C)c(F)c2)cc1", "note": "[(2R)-N-(3-fluoro-4-(trimethylsilyl)phenyl)-2-(4-(methoxymethyl)phenyl)-2-(((methylsulfonyl)acetyl)amino)acetamide]", "inhibition at 100 µM": 31.3},
      {"compound": "COCc1ccc([C@@H](NC(=O)[C@H]2CNC(=O)C2)C(=O)Nc2cc(F)c([Si](C)(C)C)c(F)c2)cc1", "note": "[(3R)-N-((1R)-2-((3,5-difluoro-4-(trimethylsilyl)phenyl)amino)-1-(4-(methoxymethyl)phenyl)-2-oxoethyl)-5-oxopyrrolidine-3-carboxamide]", "inhibition at 100 µM": 63},
      {"compound": "COc1ccc([C@@H](NC(=O)[C@H]2CNC(=O)C2)C(=O)Nc2ccc([Si](C)(C)C)c(F)c2)cc1", "note": "[(3R)-N-((1R)-2-((3-fluoro-4-(trimethylsilyl)phenyl)amino)-1-(4-(methoxy)phenyl)-2-oxoethyl)-5-oxopyrrolidine-3-carboxamide]", "inhibition at 100 µM": 65.2}
    ]}
  ]
}
